# Measurements reported in ChEMBL document CHEMBL1201862, “PubChem BioAssay data set” (2004).
# Active and inactive are the calls of the source.
# How the values were obtained:
# [1] = target: Cytochrome P450 3A4 (Homo sapiens, UniProt P08684);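 further: CYP3A4 tested as one member of a cytochrome P450 panel screen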
# [2] = target: Cytochrome P450 2C19 (Homo sapiens, UniProt P33261); assay: Cytochrome panel assay with activity outcomes. Panel member name: p450-cyp2c19 Compounds with AC50 equal or less than 10 uM are considered active; assay type: functional; conditions: read-out: AC50
# [3] = Luminescence Cell-Based Dose Response HTS to Identify Inhibitors of 5'UTR Stem-Loop Driven Prion Protein mRNA Translation in H4 Neuroglioblastoma Cells. [Related pubchem assays: 1827 (Project Summary), 1813 (Primary HTS)]; assay type: functional
# [4] = luciferase reporter signal suppression in cells – H4 neuroglioma cells, luminescence, dose response (AID 1990); assay type: functional, cell-based
# [5] = alpha-synuclein stem-loop luciferase translation blockers – H4 neuroglioma cells, luminescence, confirmation (AID 1988); assay type: functional, cell-based
# [6] = target: Cytochrome P450 2D6 (Homo sapiens, UniProt P10635);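 further: CYP2D6 member of a cytochrome P450 panel assay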
# [7] = target: T1, Protein RecA (Mycobacterium tuberculosis, UniProt P9WHJ3); assay: Fluorescence Cell-Free Homogeneous Dose Retest to Identify Inhibitors of RecA-Intein Splicing Activity. [Related pubchem assays (depositor defined):AID2097, AID2223, AID489010, AID492950]; assay type: functional
# T1 sequence (P9WHJ3 whole entry): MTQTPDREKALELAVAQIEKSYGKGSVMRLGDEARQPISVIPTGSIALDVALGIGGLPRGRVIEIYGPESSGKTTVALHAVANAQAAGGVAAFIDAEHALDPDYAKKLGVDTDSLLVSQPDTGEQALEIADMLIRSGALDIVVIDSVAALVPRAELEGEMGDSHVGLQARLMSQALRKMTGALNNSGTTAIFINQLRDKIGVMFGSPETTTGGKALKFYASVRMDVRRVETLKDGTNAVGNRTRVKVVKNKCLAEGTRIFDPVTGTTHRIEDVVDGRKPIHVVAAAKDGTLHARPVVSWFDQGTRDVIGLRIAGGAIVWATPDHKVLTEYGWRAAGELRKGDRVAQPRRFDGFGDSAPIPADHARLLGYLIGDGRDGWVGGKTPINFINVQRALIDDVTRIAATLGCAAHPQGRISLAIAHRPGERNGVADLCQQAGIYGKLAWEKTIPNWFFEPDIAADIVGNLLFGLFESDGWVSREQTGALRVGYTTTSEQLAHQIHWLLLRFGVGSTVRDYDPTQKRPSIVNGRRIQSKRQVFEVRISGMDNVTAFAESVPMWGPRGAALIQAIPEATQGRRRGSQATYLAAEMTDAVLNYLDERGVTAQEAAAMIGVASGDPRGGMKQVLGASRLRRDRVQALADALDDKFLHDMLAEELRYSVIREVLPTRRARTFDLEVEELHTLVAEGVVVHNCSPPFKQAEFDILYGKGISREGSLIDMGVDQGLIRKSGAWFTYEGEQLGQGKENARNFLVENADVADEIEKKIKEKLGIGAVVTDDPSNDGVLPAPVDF
# [8] = test system: H4; assay: Luminescence Cell-Based Dose Response HTS to Identify Activators of 5'UTR Stem-Loop Driven Prion Protein mRNA Translation in H4 Neuroglioblastoma Cells. [Related pubchem assays: 1829 (Project Summary), 1814 (Primary HTS)]; assay type: functional; conditions: Homo sapiens
# [9] = Luminescence Cell-Based Dose Response HTS to Identify Activators of Luciferase Translation or Activity in H4 […] Cells. [Related pubchem assays: 1829 (Project Summary), 1814 (Primary HTS)]; assay type: functional
# [10] = test system: Streptococcus sp. 'group A'; assay: Streptococcus pyogenes SK(-)GAS viability under kanamycin – luminescence, BacTiterGlo, confirmation, counter-screen for streptokinase expression inhibitor project, dose response (AID 1900); assay type: functional, organism-based
# [11] = target: T2, Streptokinase A (Streptococcus pyogenes serotype M1, UniProt P10520); assay: viability-normalized secreted streptokinase activity reduction – plasminogen activation absorbance, OD405, dose response (AID 1914); assay type: functional, Streptococcus pyogenes M1 GAS;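 further: secreted streptokinase activity via plasminogen activation per viability signal from cell pellet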
# T2 sequence (P10520 whole entry): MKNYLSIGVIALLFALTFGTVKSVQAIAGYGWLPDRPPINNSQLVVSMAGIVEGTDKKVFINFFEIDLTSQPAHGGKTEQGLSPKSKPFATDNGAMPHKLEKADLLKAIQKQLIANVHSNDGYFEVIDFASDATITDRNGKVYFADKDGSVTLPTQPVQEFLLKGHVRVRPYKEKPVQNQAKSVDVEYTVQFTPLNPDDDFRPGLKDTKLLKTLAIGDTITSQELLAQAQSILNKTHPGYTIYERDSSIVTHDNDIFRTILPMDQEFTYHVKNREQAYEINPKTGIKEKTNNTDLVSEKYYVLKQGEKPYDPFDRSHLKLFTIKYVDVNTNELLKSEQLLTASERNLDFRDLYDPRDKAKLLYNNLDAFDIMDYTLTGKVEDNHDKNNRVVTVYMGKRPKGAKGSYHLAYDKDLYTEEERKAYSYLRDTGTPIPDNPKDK
# [12] = test system: Streptococcus; assay: GAS UMAA2166 growth inhibition – luminescence, BacTiterGlo, counter-screen for streptokinase expression inhibitor project, dose response (AID 1915); assay type: functional, organism-based;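 further: potency for reduction of bacterial viability or growth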
# Chain of Cytochrome P450 3A4 (P08684 whole entry): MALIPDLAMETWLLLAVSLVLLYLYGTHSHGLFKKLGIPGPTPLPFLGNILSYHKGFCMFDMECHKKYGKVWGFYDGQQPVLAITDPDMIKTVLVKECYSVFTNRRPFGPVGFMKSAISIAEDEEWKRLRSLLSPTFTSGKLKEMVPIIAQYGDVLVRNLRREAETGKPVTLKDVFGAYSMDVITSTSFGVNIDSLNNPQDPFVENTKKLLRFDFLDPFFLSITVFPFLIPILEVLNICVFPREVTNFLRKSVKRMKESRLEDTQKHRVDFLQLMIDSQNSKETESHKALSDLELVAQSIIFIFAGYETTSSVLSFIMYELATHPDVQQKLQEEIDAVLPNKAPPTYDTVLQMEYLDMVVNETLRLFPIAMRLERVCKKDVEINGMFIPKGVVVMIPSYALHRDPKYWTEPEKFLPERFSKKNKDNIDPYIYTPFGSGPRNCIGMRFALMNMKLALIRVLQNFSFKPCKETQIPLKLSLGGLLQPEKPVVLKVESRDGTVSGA
# Chain of Cytochrome P450 2D6 (P10635 whole entry): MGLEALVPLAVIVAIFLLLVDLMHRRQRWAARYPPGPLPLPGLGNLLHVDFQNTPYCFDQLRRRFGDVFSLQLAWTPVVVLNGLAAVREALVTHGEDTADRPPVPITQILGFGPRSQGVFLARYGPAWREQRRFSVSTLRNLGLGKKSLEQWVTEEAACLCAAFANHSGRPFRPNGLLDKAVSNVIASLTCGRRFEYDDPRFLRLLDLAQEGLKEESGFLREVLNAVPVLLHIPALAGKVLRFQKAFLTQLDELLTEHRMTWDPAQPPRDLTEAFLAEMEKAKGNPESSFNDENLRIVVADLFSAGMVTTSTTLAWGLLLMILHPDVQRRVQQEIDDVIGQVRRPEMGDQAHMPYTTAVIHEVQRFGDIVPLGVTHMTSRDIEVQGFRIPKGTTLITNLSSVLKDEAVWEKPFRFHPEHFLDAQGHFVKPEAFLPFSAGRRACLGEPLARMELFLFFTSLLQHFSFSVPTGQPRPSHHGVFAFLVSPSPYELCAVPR
# Chain of Cytochrome P450 2C19 (P33261 whole entry): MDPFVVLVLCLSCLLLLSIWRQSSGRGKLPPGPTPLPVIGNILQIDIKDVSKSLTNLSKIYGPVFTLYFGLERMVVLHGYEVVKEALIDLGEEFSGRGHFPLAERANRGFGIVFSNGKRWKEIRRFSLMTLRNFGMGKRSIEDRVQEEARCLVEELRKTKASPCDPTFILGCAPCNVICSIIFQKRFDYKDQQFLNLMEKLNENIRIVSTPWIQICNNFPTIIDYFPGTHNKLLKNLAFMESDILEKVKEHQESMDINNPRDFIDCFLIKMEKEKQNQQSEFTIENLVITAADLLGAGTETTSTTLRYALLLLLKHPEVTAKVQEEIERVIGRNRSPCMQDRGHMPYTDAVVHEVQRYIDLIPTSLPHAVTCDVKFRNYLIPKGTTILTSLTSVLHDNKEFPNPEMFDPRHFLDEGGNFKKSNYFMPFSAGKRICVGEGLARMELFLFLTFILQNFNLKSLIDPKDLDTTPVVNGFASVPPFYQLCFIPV
structure (smiles),measurement,setting,value
SC1=NC2=C(C(c3ccc(Br)cc3)N1)N1CCC2CC1 (stereo not given),AC50,[1],1.58 µM (inconclusive)
COCCn1c(=O)c(C)nc2cnc(Oc3cccc(Cl)c3)nc21,AC50,[2],20 µM (inconclusive)
CCn1c(S)nnc1CC(=O)Nc1ccc(C)cc1,EC50,[3],> 120 µM (not active)
same,EC50,[4],> 120 µM (not active)
same,EC50,[5],> 120 µM (not active)
CCOC(=O)CSc1nnc(CSc2nc3sc4c(c3c(=O)[nH]2)CCCC4)n1-c1ccccc1,AC50,[1],1 µM (inconclusive)
COc1cccc(N2C(=O)C(CC(=O)Nc3ccccc3)N(C3CCCCC3)C2=O)c1 (stereo not given),AC50,[6],17.8 µM (inconclusive)
O=C(/C=C\c1ccccc1)c1ccccc1O,AC50,[2],3.98 µM (inconclusive)
Cc1ccccc1-c1nc(NCc2cccnc2)c2ccccc2n1,AC50,[6],39.8 µM (inconclusive)
same,AC50,[2],15.8 µM (inconclusive)
O=c1c(-c2cccs2)nc2cnc(Oc3cccc(Cl)c3)nc2n1C[C@H]1CCCO1,AC50,[1],10 µM (inconclusive)
CCO/C=C1/C(=O)N(Cc2ccccc2)C(=O)c2ccccc21,EC50,[7],> 380 µM (inactive)
CC(=O)N1CCC[C@@]2(CCN(Cc3ccc(C#N)cc3)C2)C1,AC50,[6],12.6 µM (inconclusive)
CCOc1cc(C2NC(=O)NC(c3ccccc3)=C2C(C)=O)ccc1OCC(N)=O (stereo not given),AC50,[1],20 µM (inconclusive)
CCOC(=O)c1cnc2c(OC)cccc2c1N1CCN(c2ccccn2)CC1,EC50,[3],53.9 µM (active)
same,EC50,[4],15.6 µM (active)
same,EC50,[5],11.5 µM (active)
COc1ccc2c(c1)C1=NN(/C(C)=C\C(C)=O)C(c3ccccc3)C1CC2 (stereo not given),EC50,[8],7.74 µM (active)
same,EC50,[9],24.7 µM (active)
COc1ccc(/C=C/C(=O)c2c(C)nc3ccccn23)cc1,EC50,[8],> 120 µM (not active)
same,EC50,[9],0.225 µM (active)
O=S(=O)(c1ccc(F)cc1)c1nc(-c2ccccc2)oc1N1CCOCC1,EC50,[10],> 150 µM (not active)
same,EC50,[11],> 150 µM (not active)
same,EC50,[12],> 150 µM (not active)
COCCNc1ncnc2ccc(-c3c(C)noc3C)cc12,AC50,[1],31.6 µM (inconclusive)
C[C@@]12C(=O)N(Cc3ccccc3)CC(=O)N1[C@H](/C=C/c1ccccc1)[C@@H]1C(=O)N(c3ccccc3)C(=O)[C@@H]12,EC50,[3],> 120 µM (not active)
same,EC50,[4],25.8 µM (active)
same,EC50,[5],14.9 µM (active)
COc1ccc(-c2cc(C)no2)cc1S(=O)(=O)N1CCOc2ccccc21,EC50,[3],83.5 µM (active)
same,EC50,[4],> 120 µM (not active)
same,EC50,[5],31.4 µM (active)
O=C(/C=C/c1c(F)cccc1Cl)Nc1ncccn1,EC50,[8],7.88 µM (active)
same,EC50,[9],0.974 µM (active)
COc1ccc(-n2c(=O)c(C)nc3cnc(OC)nc32)cc1,AC50,[2],39.8 µM (inconclusive)
same,AC50,[1],25.1 µM (inconclusive)
COc1cccc(-c2nc(NC3CCNCC3)c3ccccc3n2)c1,AC50,[1],25.1 µM (inconclusive)
COc1ccc([N+](=O)[O-])cc1N=C(S)NC(NC(=O)C(c1ccccc1)c1ccccc1)C(Cl)(Cl)Cl (stereo not given),EC50,[10],14.4 µM (active)
same,EC50,[12],> 150 µM (not active)
COc1ccc([N+](=O)[O-])cc1NC(=S)NC(NC(=O)C(c1ccccc1)c1ccccc1)C(Cl)(Cl)Cl (stereo not given),EC50,[11],> 150 µM (not active)
COc1ccc(NC(=O)N2CC[C@@]3(CCCN(C(=O)c4cccn4C)C3)C2)cc1,AC50,[1],2 µM (inconclusive)
